In patent publication US20130267494A1, “1,4-OXAZEPANE DERIVATIVES” (priority 2010, published 2013):
Where a name gives a salt, the structure may show the parent alone.

How the values were obtained:
Assay type in all cases: cell-based
[1] = target: T1, human norepinephrine transporter (Homo sapiens, UniProt P23975); assay: Inhibitory action on human norepinephrine transporter ([3H]-norepinephrine uptake in CHO cells); settings: CHO, compound 1 μM; relative to inhibitory activity of 10 μM DMI as 100%; read-out: inhibitory rate (%)
T1 construct: expressed in transfected cells
T1 sequence (P23975 whole entry): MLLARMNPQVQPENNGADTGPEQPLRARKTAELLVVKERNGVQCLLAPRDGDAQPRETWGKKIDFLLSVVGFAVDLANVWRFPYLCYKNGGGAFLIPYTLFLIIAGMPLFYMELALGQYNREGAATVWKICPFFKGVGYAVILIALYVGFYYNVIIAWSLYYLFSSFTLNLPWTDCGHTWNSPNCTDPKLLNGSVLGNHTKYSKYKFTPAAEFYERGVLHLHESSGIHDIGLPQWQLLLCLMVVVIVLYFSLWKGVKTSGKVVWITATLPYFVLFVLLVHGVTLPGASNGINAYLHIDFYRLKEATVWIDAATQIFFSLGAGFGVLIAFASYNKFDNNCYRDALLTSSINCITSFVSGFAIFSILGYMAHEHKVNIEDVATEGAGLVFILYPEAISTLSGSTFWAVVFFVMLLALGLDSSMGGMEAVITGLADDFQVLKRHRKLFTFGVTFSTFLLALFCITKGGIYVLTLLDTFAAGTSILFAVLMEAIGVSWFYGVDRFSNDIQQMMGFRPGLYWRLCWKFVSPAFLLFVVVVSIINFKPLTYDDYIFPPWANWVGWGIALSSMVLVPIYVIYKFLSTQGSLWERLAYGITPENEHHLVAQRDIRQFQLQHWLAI
Text: (§1) Human serotonin transporter cDNA was amplified from human brain cDNA library by PCR, and inserted into pCRII-TOPO vector (manufactured by Invitrogen). The base sequence was confirmed and modified, and subcloned to pcDNA3.1 vector (manufactured by Invitrogen), whereby a human serotonin transporter expression plasmid was constructed. Human norepinephrine transporter cDNA was purchased from Invitrogen, and the base sequence was confirm and modified, and subcloned to pcDNA3.1 vector, whereby a human norepinephrine transporter expression plasmid was constructed.
(§2) The monoamine transporter expression plasmids thus prepared were introduced into CHO-K1 cells using FuGENE6 (manufactured by Roche Diagnostics) and according to the attached protocol, whereby each expressing cell was established.
CHO cells stably expressing human norepinephrine transporter were used for the measurement of human norepinephrine transporter inhibitory activity. Unless otherwise indicated, these CHO cells were cultured in Ham/F12 medium (Invitrogen) containing 10% fetal bovine serum (MOREGATE).
(§3) The cultured cells that reached almost confluent were rinsed with PBS (Invitrogen), detached with Trypsin/EDTA (Invitrogen), and collected by a centrifugal operation. The obtained cells were counted, and diluted to 3×10^5 cells per 1 mL medium, and the mixture was dispensed to a 96 well white plate (Corning) at 100 μL per well, and cultured overnight in a CO2 incubator.
(§4) Then, an assay buffer (126 mM NaCl, 4.95 mM KCl, 1.26 mM KH2PO4, 1.26 mM MgSO4, 10 mM HEPES, 2.32 mM CaCl2, 5.52 mM Glucose, 0.5% BSA) was prepared, the medium in the cell plate was removed and the assay buffer was added by 80 μL. A test compound was diluted with the assay buffer to a 10-fold concentration of the final concentration, and the mixture was dispensed to a 96 well polypropylene plate. The diluted test compound was dispensed to the cell plate by 10 μL. [3H]-Norepinephrine (GE Healthcare) was diluted with the assay buffer to 200 nM, and the mixture was dispensed to the cell plate by 10 μL. At 45 min from [3H]-norepinephrine addition, the assay buffer was removed by suction, and the plate was washed twice with 150 μL of PBS (Invitrogen) per well. Microscinti20 (PerkinElmer) was dispensed to each well by 100 μL, and the mixture was stirred for about 30 min. The radioactivity was measured by TopCount (PerkinElmer).
The inhibitory activity of each compound (10 μM) was calculated as a relative activity value based on the inhibitory activity of 10 μM DMI (norepinephrine transporter inhibitor) as 100%.
The inhibitory activity of each compound (1 μM) was calculated as a relative activity value based on the inhibitory activity of 10 μM DMI (norepinephrine transporter inhibitor) as 100%.

[2] = target: T2, human serotonin transporter (Homo sapiens, UniProt P31645); assay: Inhibitory action on human serotonin transporter ([3H]-5-hydroxytryptamine uptake in CHO cells); settings: CHO, compound 1 μM; relative to inhibitory activity of 10 μM Paroxetine as 100%; read-out: inhibitory rate (%)
T2 construct: expressed in transfected cells
T2 sequence (P31645 whole entry): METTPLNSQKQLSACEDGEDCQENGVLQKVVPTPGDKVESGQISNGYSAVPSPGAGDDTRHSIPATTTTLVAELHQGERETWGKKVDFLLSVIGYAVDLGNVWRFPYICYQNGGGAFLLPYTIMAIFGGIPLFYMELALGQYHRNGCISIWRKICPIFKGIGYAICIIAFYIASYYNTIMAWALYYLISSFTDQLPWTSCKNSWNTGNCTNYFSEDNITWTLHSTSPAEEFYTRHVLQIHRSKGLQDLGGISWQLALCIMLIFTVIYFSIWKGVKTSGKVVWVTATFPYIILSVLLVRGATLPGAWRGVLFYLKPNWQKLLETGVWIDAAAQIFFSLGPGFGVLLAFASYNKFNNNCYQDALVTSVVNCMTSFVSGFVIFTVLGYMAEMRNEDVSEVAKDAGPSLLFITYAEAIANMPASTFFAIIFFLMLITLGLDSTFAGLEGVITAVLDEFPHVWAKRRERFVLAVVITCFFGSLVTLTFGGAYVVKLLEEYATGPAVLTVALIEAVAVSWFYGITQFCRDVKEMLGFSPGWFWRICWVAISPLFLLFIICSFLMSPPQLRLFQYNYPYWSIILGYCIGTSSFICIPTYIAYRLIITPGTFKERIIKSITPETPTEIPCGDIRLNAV
Text: as §1, §2
CHO cells stably expressing a human serotonin transporter were used for the measurement of human serotonin transporter inhibitory activity. Unless particularly indicated, these CHO cells were cultured in a Ham/F12 medium (Invitrogen) containing 10% fetal bovine serum (MOREGATE).
as §3, with “medium,” for “medium, and”
as §4, with “[3H]-5-Hydroxytryptamine” for “[3H]-Norepinephrine”, “20” for “45”, “[3H]-5-hydroxytryptamine” for “[3H]-norepinephrine”
The inhibitory activity of each compound (10 μM) was calculated as a relative activity value based on the inhibitory activity of 10 μM Paroxetine (serotonin transporter inhibitor) as 100%.
In addition, the inhibitory activity of each compound (1 μM) was calculated as a relative activity value based on the inhibitory activity of 10 μM Paroxetine (serotonin transporter inhibitor) as 100%.

[3] = target: T3, human dopamine transporter (Homo sapiens, UniProt Q01959); assay: Inhibitory action on human dopamine transporter ([3H]-dopamine uptake in CHO cells); settings: CHO, compound 1 μM; relative to inhibitory activity of 100 μM Nomifensine as 100%; read-out: inhibitory rate (%)
T3 construct: expressed in transfected cells
T3 sequence (Q01959 whole entry): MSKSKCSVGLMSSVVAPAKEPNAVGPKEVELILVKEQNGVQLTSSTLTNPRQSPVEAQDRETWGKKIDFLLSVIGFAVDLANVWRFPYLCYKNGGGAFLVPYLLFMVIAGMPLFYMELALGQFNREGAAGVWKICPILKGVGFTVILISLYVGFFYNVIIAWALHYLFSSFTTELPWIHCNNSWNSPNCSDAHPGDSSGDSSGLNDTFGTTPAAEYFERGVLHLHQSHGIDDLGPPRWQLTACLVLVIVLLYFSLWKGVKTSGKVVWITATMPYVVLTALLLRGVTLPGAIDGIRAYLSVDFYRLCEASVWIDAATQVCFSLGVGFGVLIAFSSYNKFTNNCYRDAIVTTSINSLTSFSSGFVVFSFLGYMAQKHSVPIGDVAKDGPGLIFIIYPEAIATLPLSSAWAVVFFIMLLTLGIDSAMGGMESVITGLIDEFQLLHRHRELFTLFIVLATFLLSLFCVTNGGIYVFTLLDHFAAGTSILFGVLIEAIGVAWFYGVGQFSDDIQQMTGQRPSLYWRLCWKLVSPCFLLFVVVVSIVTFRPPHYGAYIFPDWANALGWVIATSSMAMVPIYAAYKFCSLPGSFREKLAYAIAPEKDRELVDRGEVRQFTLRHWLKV
Text: SRα promoter contained in pTB1411 described in JP-A-H5-076385 was cleaved with restriction enzyme […](manufactured by TAKARA BIO INC.), blunt-ended, further cleaved with restriction enzyme EcoRI (manufactured by TAKARA BIO INC.), and fragmented. On the other hand, pCI vector was cleaved with restriction enzyme BglII (manufactured by TAKARA BIO INC.), blunt-ended with T4 DNA polymerase, and further cleaved with restriction enzyme EcoRI (manufactured by TAKARA BIO INC.). Into this site was inserted an SRa promoter fragment to give pCI-SRa. Then, pCI-SRa was cleaved with restriction enzyme ClaI (manufactured by TAKARA BIO INC.) and blunt-ended. Into this site was inserted a 1.63 Kb fragment obtained by cleaving pGFP-C1 (manufactured by TOYOBO) with restriction enzyme Bsu36I (manufactured by Daiichi Pure Chemicals Co., Ltd.) followed by blunt-ending, whereby pMSRα neo was prepared. Human dopamine transporter cDNA was amplified from human substantia nigra cDNA library by PCR, and inserted into the pCRII vector (manufactured by Invitrogen). The base sequence was confirmed, modified and subcloned to pMSRα neo, whereby a human dopamine transporter expression plasmid was constructed.
as §2
CHO cells stably expressing human dopamine transporter were used for the measurement of human dopamine transporter inhibitory activity. Unless otherwise indicated, these CHO cells were cultured in Ham/F12 medium (Invitrogen) containing 10% fetal bovine serum (MOREGATE).
as §3, with “One day before the assay, the cultured” for “The cultured”
as §4, with “On the day of the test,” for “Then,”, “[3H]-Dopamine” for “[3H]-Norepinephrine”, “nM, cold dopamine was diluted to 10 μM,” for “nM,”, “60” for “45”, “[3H]-dopamine” for “[3H]-norepinephrine”
The inhibitory activity of each compound (10 μM) was calculated as a relative activity value based on the inhibitory activity of 100 μM Nomifensine (dopamine transporter inhibitor) as 100%.
The inhibitory activity of each compound (1 μM) was m calculated as a relative activity value based on the inhibitory activity of 100 μM Nomifensine (dopamine transporter inhibitor) as 100%.

| SMILES | inhibition at 1 µM [1] [%] | inhibition at 1 µM [2] [%] | inhibition at 1 µM [3] [%] |
| --- | --- | --- | --- |
| CS(=O)(=O)NC[C@@]1(O)CNCCO[C@@H]1c1ccc(Cl)c(Cl)c1 (racemic) [Example 162, N-{[(6RS,7SR)-7-(3,4-dichlorophenyl)-6-hydroxy-1,4-oxazepan-6-yl]methyl}methanesulfonamide monohydrochloride] | 105 | 65 | 40 |
| O[C@H]1CNCCO[C@@H]1c1ccc(Cl)c(Cl)c1 (racemic) [Example 230, (6RS,7SR)-7-(3,4-dichlorophenyl)-1,4-oxazepan-6-ol monohydrochloride] | 100 | 59 | 25 |
| O=c1[nH]c(-c2cccnc2O[C@H]2CNCCOC2c2ccc(Cl)c(Cl)c2)no1 (mixture of isomers) [Example 236, 3-(2-{[(6RS,7SR)-7-(3,4-dichlorophenyl)-1,4-oxazepan-yl]oxy}pyridin-3-yl)-1,2,4-oxadiazol-5(4H)-one monohydrochloride] | 105 | 92 | 93 |
| OC[C@@H]1CNCCO[C@@H]1c1ccc(F)c(Cl)c1 (racemic) [Example 278, [(6RS,7RS)-7-(3-chloro-4-fluorophenyl)-1,4-oxazepan-6-yl]methanol monohydrochloride] | 91 | 87 | 13 |
| CS(=O)(=O)C[C@@H]1CNCCOC1c1ccc(F)c(Cl)c1 (mixture of isomers) [Example 281, (6RS,7SR)-7-(3-chloro-4-fluorophenyl)-6-[(methylsulfonyl)methyl]-1,4-oxazepane monohydrochloride] | 95 | 95 | 22 |
| CS(=O)(=O)NC[C@H]1CNCCO[C@@H]1c1ccc(F)c(Cl)c1 (racemic) [Example 293, N-{[(6RS,7SR)-7-(3-chloro-4-fluorophenyl)-1,4-oxazepan-6-yl]methyl}methanesulfonamide monohydrochloride] | 95 | 65 | 31 |
| OC[C@H]1CNCCO[C@@H]1c1cc2ccccc2s1 (racemic) [Example 410, [(6RS,7SR)-7-(1-benzothiophen-2-yl)-1,4-oxazepan-6-yl]methanol monohydrochloride] | 103 | 91 | 32 |
| CCOC(=O)[C@H]1NCCOC[C@@H]1c1ccc(Cl)c(Cl)c1 (racemic) [Example 412, ethyl (5RS,6SR)-6-(3,4-dichlorophenyl)-1,4-oxazepane-5-carboxylate monohydrochloride] | 86 | 8 | 83 |
| COC[C@@H]1OCCNC[C@@H]1c1ccc(Cl)c(Cl)c1 (racemic) [Example 449, (6RS,7SR)-6-(3,4-dichlorophenyl)-7-(methoxymethyl)-1,4-oxazepane monohydrochloride] | 100 | 53 | 58 |
| O=C(Cn1cncn1)NC[C@@H]1OCCNC[C@@H]1c1ccc(Cl)c(Cl)c1 (racemic) [Example 457, N-{[(6RS,7SR)-6-(3,4-dichlorophenyl)-1,4-oxazepan-7-yl]methyl}-2-(1H-1,2,4-triazol-1-yl)acetamide monohydrochloride] | 101 | 27 | 47 |
| OCCOC[C@H]1OCCNC[C@@H]1c1ccc(Cl)c(Cl)c1 (racemic) [Example 495, 2-{[(6RS,7RS)-6-(3,4-dichlorophenyl)-1,4-oxazepan-7-yl]methoxy}ethanol monohydrochloride] | 105 | 59 | 42 |
| CS(=O)(=O)NCCC[C@@H]1OCCNC[C@H]1c1ccc(Cl)c(Cl)c1 (racemic) [Example 520, N-{3-[(6RS,7SR)-6-(3,4-dichlorophenyl)-1,4-oxazepan-7-yl]propyl}methanesulfonamide monohydrochloride] | 105 | 84 | 36 |
| O=S(=O)(NC[C@@]1(O)CNCCO[C@@H]1c1ccc(Cl)c(Cl)c1)C(F)F (racemic) [Example 521, N-{[(6RS,7SR)-7-(3,4-dichlorophenyl)-6-hydroxy-1,4-oxazepan-6-yl]methyl}-1,1-difluoromethanesulfonamide monohydrochloride] | 104 | 84 | 76 |
